This passage reports Ki and Kd results from PMC8746695, “Zinc-Chelating Compounds as Inhibitors of Human and Bacterial Zinc Metalloproteases” (Molecules, 2021).

Test [1] has as its target T1, human MT1-MMP/MMP-14 (catalytic domain) (Homo sapiens, UniProt P50281).
T1 construct: human MT1-MMP/MMP-14 (catalytic domain); purchased Calbiochem (San Diego, CA, USA)
Briefly: Inhibition of MMP-14, fluorescence quenched peptide substrate McaPLGL(Dpa)AR-NH2. Type of test: biochemical. The settings on record: substrate McaPLGL(Dpa)AR-NH2 4 µM; 30 min pre-incubation at room temperature; calculated from IC50; read-out: Ki ± s.d. MMP-14. As to the method:
(§1) McaPLGL(Dpa)AR-NH2 was used as a substrate for MMP-9 and MMP-14, while McaRPPGFSAFK(Dnp)-OH was used as substrate for ALN, PLN and TLN. The reaction velocities/initial rates (v) were determined at 37 °C, at an excitation wavelength of 320 nm and an emission wavelength of 405 nm with a slit width of 10 nm using either a Perkin Elmer LS 50 Luminescence spectrometer and the FL WinLab Software Package (Perkin Elmer) or a Clario Star microplate reader (CLARIOstar® BMG LABTECH).
(§2) The test compounds were dissolved in 100% DMSO giving a concentration of 10 mM. A fixed substrate concentration of 4.0 µM in a total volume of 100 µL 0.1 M Hepes pH 7.5, 10 mM CaCl2, 0.005% Brij-35 and 1.0% DMSO, were used in all assays, except for ALN where the substrate concentration was 5.0 µM. The fixed enzyme concentrations were as follows; 0.05 nM MMP-9, 1.0 nM MMP-14, 1.4 nM ALN, 0.5 nM PLN and 0.21 nM TLN. Time-dependent inhibitory experiments without and with 100 μM of testing compounds were performed as follows. Compounds were either pre-incubated with the proteases for 15, 30 and 45 min at room temperature and the enzymatic reaction was started by adding the substrate, or not pre-incubated, i.e., the reaction was started by adding the protease to the mixture of substrate and compound. Control tests without compound present were performed in the same way. The reaction was followed for 30 min at 37 °C.
(§3) Enzymes with and without inhibitor were pre-incubated for 30 min at room temperature, and initial rate assays were performed as described above. Assays were performed using a Clario Star microplate reader (CLARIOstar® BMG LABTECH). The IC50 values were calculated in Graph Pad Prism 5 using Equation (1):(1) vi/v0=1/(1+10^(pIC50−pI)) where vi is the enzyme activity in the presence of inhibitor, v0 the activity in the absence of inhibitor, pI = −log [Inhibitor] in M and pIC50 = −log IC50 in M. All experiments were performed in at least triplicate.

The target in a further test is T2, recombinant human MMP-9 (Homo sapiens, UniProt P14780).
T2 construct: made in house; host or cells: Sf9 insect cells
In words: Inhibition of MMP-9, fluorescence quenched peptide substrate McaPLGL(Dpa)AR-NH2. The note with it: substrate McaPLGL(Dpa)AR-NH2 4 µM; 30 min pre-incubation at room temperature; calculated from IC50; read-out: Ki ± s.d. MMP-9. Type of test: biochemical. The method, then:
The expression and purification of recombinant human full-length proMMP-9 (rpMMP-9) from Sf9 insect cells were performed as described previously. The amount of proMMP-9 was estimated spectrophotometrically at 280 nm using ε280 nm = 114.36 mM^−1 cm^−1 [48]. Activation of the recombinant proMMP-9 was performed with APMA (auto-activation) as described previously. The amount of active MMP-9 was determined by active site titration using galardin also described previously.
as §1, §2, §3

For a further test, the target named is T3, aureolysin (ALN) (Staphylococcus aureus, UniProt P81177).
T3 construct: purchased BioCentrum Ltd. (Kraków, Poland)
In words: Inhibition of aureolysin (ALN), substrate McaRPPGFSAFK(Dnp)-OH. Type of test: biochemical. As to the method: as §1, §2, §3

The next test has as its target T4, thermolysin (TLN) (Bacillus thermoproteolyticus, UniProt P00800).
T4 construct: purchased Calbiochem (San Diego, CA, USA)
In words: Inhibition of thermolysin (TLN), substrate McaRPPGFSAFK(Dnp)-OH. Type of test: biochemical. The settings on record: substrate McaRPPGFSAFK(Dnp)-OH 4 µM; 30 min pre-incubation at room temperature; calculated from IC50; read-out: Ki ± s.d. TLN. As to the method:
as §1, §2, §3

The conditions of test [2]: in solution; read-out: Kd for zinc; cited from earlier work.

T2 sequence (P14780 107-707 limits assumed): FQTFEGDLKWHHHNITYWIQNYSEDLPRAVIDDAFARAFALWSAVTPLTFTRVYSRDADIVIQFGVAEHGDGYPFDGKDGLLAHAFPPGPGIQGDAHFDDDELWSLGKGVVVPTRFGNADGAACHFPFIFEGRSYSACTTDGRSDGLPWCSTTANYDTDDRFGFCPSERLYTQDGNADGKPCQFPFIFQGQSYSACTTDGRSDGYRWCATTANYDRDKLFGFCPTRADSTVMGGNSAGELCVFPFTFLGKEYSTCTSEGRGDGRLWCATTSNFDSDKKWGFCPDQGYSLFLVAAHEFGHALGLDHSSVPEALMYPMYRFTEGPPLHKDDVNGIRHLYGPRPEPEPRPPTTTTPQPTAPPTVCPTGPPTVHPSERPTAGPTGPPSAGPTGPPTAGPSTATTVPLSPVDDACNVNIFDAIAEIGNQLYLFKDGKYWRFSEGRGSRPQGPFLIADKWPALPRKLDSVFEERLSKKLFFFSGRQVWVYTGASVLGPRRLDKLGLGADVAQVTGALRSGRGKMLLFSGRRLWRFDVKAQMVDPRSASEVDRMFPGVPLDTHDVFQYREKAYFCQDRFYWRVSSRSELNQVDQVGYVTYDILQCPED
T4 sequence (P00800 233-548): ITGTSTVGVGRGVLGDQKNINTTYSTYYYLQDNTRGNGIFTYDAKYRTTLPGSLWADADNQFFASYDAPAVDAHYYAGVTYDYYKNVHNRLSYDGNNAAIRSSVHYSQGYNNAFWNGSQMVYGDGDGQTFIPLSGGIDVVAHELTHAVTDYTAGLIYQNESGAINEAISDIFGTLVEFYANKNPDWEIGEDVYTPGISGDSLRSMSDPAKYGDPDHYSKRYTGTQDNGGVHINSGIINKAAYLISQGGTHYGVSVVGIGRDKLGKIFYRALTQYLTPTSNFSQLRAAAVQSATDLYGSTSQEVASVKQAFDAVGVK
T3 sequence (P81177 209-509): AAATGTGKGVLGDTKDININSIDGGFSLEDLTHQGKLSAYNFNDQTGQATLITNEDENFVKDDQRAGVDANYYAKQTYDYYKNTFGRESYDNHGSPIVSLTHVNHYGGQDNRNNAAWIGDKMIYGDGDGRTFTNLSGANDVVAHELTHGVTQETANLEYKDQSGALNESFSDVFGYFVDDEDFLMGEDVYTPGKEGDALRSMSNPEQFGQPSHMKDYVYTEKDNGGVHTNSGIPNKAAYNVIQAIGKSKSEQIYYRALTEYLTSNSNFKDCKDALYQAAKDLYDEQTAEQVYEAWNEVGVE

The Ki is the dissociation constant of the complex between target and ligand, obtained from inhibition or displacement. One may read the Kd as a measure of binding affinity in units of concentration. Turning to `c1ccc(CN(Cc2ccccn2)Cc2ccccn2)nc1` [TPA, tri(2-pyridinemethyl)amine, reference compound], the inhibition constant Ki in test [1] was 1.2 ± 0.1 µM; on recombinant human MMP-9, 15 ± 4 µM; on aureolysin (ALN), 16 ± 1 µM; at thermolysin (TLN), 5.5 ± 0.9 µM. Besides, the dissociation constant (Kd) in test [2] is ~0.01 nM.
